Test system: W303-1B/Δydl120w::Kan^R yeast
Assay: Growth of mutant yeast in medium supplemented with Fe(II) or Cu(II) ions (OD620)
Format: cell-based, Saccharomyces cerevisiae
Conditions: increasing concentrations of the metal salt, SD+ medium, 19 hours at 30° C., FIG. 2A/2B
Experimental: For this experiment, W303-1B/Δydl120w::Kan^R and wild-type yeast precultures were grown in YPD medium for 16-24 hours at 30° C. until OD600 0.4-0.6. The precultures were diluted into SD+ medium (6.7 mg/ml yeast nitrogen base w/o amino acids, 2 mg/ml yeast extracts, 0.04 mg/ml adenine sulfate, 0.0625 mg/ml uracil, 0.04 mg/ml L-leucine, 0.03 mg/ml L-histidine-HCl, 0.03 mg/ml L-tryptophane in water) supplemented with variable concentrations of FeSO4 (dissolved in 0.1 N HCl) or CuSO4 (dissolved in water). Aliquots of 100 microliter of yeast suspension were dispensed into single wells of a 96-well microtiter plate. In the experiments with FeSO4 supplementation (FIG. 2A) culture medium for W303-1B/Δydl120w::Kan^R and wild-type yeast contained 4% w/v glucose and all wells were adjusted to the same final concentration of HCl and to DMSO (1% v/v) to prevent the solvent from interfering with the results.
Following 19 hours of culture at 30° C., the growth of yeast was determined by OD620 measurement using a microplate reader.

SMILES: O=S(=O)([O-])[O-].[Cu+2] [CuSO4]
- growth of yeast as determined by OD620 measurement: clearly inhibit the growth of the frataxin deficient yeast

SMILES: O=S(=O)([O-])[O-].[Fe+2] [FeSO4]
- growth of yeast as determined by OD620 measurement: clearly inhibit the growth of the frataxin deficient yeast

Reference: patent US20050118576A1, “Novel method and assays for yeast-based drug screening” (priority 2000, published 2005)
